Test results as given in patent US10670605B2, “Cysteine reactive probes and uses thereof” (The Scripps Research Institute, priority 2015, dated 2020).

What was measured:
ACAT1 C413 (P24752) = molecular target: T1, ACAT1 C413 (P24752) (Homo sapiens, UniProt P24752); assay: Competitive isoTOP-ABPP, cell lysates; assay type: binding; conditions: for R value (DMSO/fragment) / isoTOP-ABPP ratio P24752_C413: 500 μM
T1 sequence (P24752 34-427): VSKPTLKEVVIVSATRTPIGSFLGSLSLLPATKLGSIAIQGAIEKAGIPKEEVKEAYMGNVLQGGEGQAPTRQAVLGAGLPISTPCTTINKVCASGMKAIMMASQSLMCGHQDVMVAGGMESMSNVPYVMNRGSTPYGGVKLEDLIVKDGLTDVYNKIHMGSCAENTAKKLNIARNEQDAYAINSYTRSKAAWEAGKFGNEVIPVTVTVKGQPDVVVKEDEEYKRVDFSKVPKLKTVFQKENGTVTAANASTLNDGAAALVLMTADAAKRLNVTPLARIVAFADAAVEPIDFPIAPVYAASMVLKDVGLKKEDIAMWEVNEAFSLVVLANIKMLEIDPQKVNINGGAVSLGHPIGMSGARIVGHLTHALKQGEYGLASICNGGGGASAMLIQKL

ERCC3 C342 (P19447) = molecular target: T2, ERCC3 C342 (P19447) (Homo sapiens, UniProt P19447); assay: Competitive isoTOP-ABPP, cell lysates; assay type: binding; conditions: for isoTOP-ABPP ratio P19447_C342: invitro; for isoTOP-ABPP ratio (reactivity profile), P19447_C342: 500 μm in-vitro ramos_231
T2 sequence (P19447 1-782): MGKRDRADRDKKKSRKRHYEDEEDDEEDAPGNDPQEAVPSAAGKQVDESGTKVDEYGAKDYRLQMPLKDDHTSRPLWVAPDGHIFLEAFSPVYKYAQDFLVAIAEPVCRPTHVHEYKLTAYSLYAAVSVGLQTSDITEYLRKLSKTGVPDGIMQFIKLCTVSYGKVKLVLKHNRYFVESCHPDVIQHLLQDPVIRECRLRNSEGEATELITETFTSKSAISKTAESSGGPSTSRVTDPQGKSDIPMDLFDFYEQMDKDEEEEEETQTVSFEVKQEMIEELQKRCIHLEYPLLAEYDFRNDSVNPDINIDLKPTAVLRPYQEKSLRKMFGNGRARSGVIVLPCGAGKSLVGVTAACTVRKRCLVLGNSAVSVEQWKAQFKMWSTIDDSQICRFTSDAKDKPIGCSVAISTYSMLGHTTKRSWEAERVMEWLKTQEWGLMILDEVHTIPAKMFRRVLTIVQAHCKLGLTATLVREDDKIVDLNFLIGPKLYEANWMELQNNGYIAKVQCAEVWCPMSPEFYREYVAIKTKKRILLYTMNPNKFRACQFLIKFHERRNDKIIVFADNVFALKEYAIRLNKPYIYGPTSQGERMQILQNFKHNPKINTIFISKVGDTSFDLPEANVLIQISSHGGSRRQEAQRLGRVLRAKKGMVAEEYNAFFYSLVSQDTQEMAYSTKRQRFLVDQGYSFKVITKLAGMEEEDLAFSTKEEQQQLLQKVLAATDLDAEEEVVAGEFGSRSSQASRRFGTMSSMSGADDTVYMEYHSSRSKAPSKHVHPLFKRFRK
Description: TEV digests were pressure loaded onto a 250 μm (inner diameter) fused silica capillary column packed with C18 resin (Aqua 5 μm, Phenomenex). The samples were analyzed by multidimensional liquid chromatography tandem mass spectrometry (MudPIT), using an LTQ-Velos Orbitrap mass spectrometer (Thermo Scientific) coupled to an Agilent 1200-series quaternary pump. […] One full MS (MS1) scan (400-1800 m/z) was followed by 30 MS2 scans (ITMS) of the nth most abundant ions.
The ratios of heavy/light for each unique peptide (DMSO/compound treated; isoTOP-ABPP ratios, R values) were quantified with in-house CIMAGE software, using default parameters (3 ms s per peak and signal to noise threshold 2.5). Site-specific engagement of electrophilic fragments was assessed by blockade of IA-alkyne probe labeling. […] Ratios for unique peptide entries were calculated for each experiment; overlapping peptides with the same modified cysteine (e.g. different charge states, MudPIT chromatographic steps or tryptic termini) were grouped together and the median ratio was reported as the final ratio (R). The peptide ratios reported by CIMAGE were further filtered to ensure the removal or correction of low quality ratios in each individual dataset. The quality filters applied were the following: removal of half tryptic peptides; for ratios with high standard deviations from the median (90% of the median or above) the lowest ratio was taken instead of the median; removal of peptides with R=20 and only a single ms2 event triggered during the elution of the parent ion; manual annotation of all the peptides with ratios of 20, removing any peptides with low-quality elution profiles that remained after the previous curation steps. Proteome reactivity values for individual fragments were computed as the percentage of the total quantified cysteine-containing peptides with R values≥4 (defined as liganded cysteines) for each replicate experiment and the final proteome reactivity value was calculated as the mean for all replicate experiments for each fragment from both MDA-MB-231 and Ramos cellular proteomes.
Biological replicates of the same compound and cell-line were averaged if the standard deviation was below 60% of the mean; otherwise the lowest value of the ratio set was taken. For peptides with multiple modified cysteines, the cysteine with the highest number of quantification events was kept and the remaining, redundant peptides were discarded. […] Although the majority (>75% of fragments) were profiled in at least two biological replicates, some data from single replicate MS experiments were included.

[1] = molecular target: T3, cysteines in MDA-MB-231 and Ramos cells (Homo sapiens, UniProt P04183); assay: Competitive isoTOP-ABPP in situ (fragment-treated cells); assay type: cell-based
T3 sequence (P04183 1-234): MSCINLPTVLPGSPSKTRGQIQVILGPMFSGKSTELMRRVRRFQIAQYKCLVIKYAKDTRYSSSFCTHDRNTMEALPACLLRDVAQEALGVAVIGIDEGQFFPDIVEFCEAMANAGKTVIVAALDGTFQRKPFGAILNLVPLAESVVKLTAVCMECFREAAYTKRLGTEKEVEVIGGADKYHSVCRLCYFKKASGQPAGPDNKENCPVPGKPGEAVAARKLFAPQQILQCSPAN

[2] = molecular target: cysteines in MDA-MB-231 and Ramos cells (Homo sapiens, UniProt P12268); assay: as above; assay type: cell-based
[3] = molecular target: T4, cysteines in MDA-MB-231 and Ramos cells (Homo sapiens, UniProt Q09161); assay: as above; assay type: cell-based
T4 sequence (Q09161 1-790): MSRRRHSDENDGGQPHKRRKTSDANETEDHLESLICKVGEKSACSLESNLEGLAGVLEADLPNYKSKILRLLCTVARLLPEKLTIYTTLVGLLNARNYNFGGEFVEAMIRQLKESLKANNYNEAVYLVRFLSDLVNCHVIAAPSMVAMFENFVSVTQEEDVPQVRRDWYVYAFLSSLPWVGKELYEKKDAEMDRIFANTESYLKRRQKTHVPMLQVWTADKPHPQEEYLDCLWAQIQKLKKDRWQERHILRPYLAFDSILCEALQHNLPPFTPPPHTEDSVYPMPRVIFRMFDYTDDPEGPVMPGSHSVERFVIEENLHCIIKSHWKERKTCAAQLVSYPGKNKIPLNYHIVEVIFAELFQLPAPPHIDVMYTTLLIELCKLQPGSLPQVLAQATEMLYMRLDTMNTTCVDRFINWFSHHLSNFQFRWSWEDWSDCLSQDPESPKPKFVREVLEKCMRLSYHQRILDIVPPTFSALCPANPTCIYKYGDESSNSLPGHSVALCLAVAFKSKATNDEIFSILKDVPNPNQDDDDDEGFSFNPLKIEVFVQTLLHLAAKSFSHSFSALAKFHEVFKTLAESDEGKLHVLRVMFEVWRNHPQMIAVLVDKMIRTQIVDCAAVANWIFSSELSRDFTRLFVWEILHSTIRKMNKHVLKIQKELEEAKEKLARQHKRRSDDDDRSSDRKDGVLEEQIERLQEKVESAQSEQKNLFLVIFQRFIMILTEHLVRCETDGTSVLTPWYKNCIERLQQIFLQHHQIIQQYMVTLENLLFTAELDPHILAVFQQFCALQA

For `O=C(CCl)NC1C(O)OC(CO)C(O)C1O` (mixture of isomers) [compound 44], the “isoTOP-ABPP reactivity profile ratio, P24752_C413” value (ACAT1 C413 (P24752); 500 μm, in-vitro_ramos_231) was 0.8.

For `O=C(CCl)Nc1cc(C(F)(F)F)cc(C(F)(F)F)c1` [compound 3], the “R value (DMSO/fragment)” value (ACAT1 C413 (P24752); in vitro, MDA-MB-231) was 15.3, the “R value (DMSO/fragment)” value (ACAT1 C413 (P24752); invitro, ramos) was 20.0 and the “R value (DMSO/fragment)” value (ERCC3 C342 (P19447); 500 μM, in vitro, MDA-MB-231) was 12.1.

For `C=CC(=O)N(c1ccccc1)c1ccc(Br)cc1` [compound 5], the “isoTOP-ABPP ratio P24752_C413” value (ACAT1 C413 (P24752); invitro, 231) was 1.3 and the “isoTOP-ABPP ratio P19447_C342” value (ERCC3 C342 (P19447); 500 μM, ramos) was 4.1.

In the case of `CNS(=O)(=O)C=Cc1ccc2c(ccn2Cc2ccccc2)c1` [compound 6], the “isoTOP-ABPP ratio P24752_C413” value (ACAT1 C413 (P24752); invitro, 231) is reported as 1.1 and the “isoTOP-ABPP ratio P19447_C342” value (ERCC3 C342 (P19447); 500 μM, 231) is reported as 1.1.

`COc1cc2c(cc1OC)CN(C(=O)CCl)CC2` [compound 8] was tested, and the “isoTOP-ABPP reactivity P04183_C66 TK1” value ([1]; 200 μM, insitu, 231) was 2.3, the “isoTOP-ABPP reactivity P12268_C140 IMPDH2” value ([2]; 200 μM, insitu, 231) was 0.9 and the “isoTOP-ABPP reactivity Q09161_C44 NCBP1” value ([3]; 200 μM, insitu, 231) was 2.0.

In the case of `O=C(CCl)N1CCC(Cc2ccccc2)CC1` [compound 9], the “isoTOP-ABPP reactivity P04183_C66 TK1” value ([1]; 200 μM, insitu, 231) is reported as 7.0, the “isoTOP-ABPP reactivity P04183_C230 TK1” value ([1]; 200 μM, insitu, 231) is reported as 10.0 and the “isoTOP-ABPP reactivity P12268_C140 IMPDH2” value ([2]; 200 μM, insitu, 231) is reported as 1.2. The “isoTOP-ABPP reactivity P12268_C331 IMPDH2” value ([2]; 200 μM, insitu, 231) was 1.3.

With `Cn1cc(S(=O)(=O)N2CCOCC2)cc1C(=O)NC(=O)CCl` [compound 11] the “isoTOP-ABPP ratio, cysteine P04183_C66” value ([1]; 100 μM in situ 231) was 0.6, the “isoTOP-ABPP ratio P12268_C140” value ([2]; 100 μM in situ 231) was 0.6 and the “isoTOP-ABPP ratio P12268_C331” value ([2]; 100 μM in situ 231) was 1.0. The “isoTOP-ABPP ratio Q09161_C44” value ([3]; 100 μM in situ 231) was 1.1, the “isoTOP-ABPP ratio P24752_C413” value (ACAT1 C413 (P24752); invitro, 231) was 1.9 and the “isoTOP-ABPP ratio P24752_C413” value (ACAT1 C413 (P24752); invitro, ramos) was 1.7. For the same molecule, the “isoTOP-ABPP ratio P19447_C342” value (ERCC3 C342 (P19447); 500 μM, 231) was 2.9 and the “isoTOP-ABPP ratio P19447_C342” value (ERCC3 C342 (P19447); 500 μM, ramos) was 1.5.

With `C=CC(=O)N(Cc1cccnc1)c1ccc(Oc2ccccc2)c(C(F)(F)F)c1` [compound 15] the “isoTOP-ABPP ratio P24752_C413” value (ACAT1 C413 (P24752); invitro, 231) was 1.2 and the “isoTOP-ABPP ratio (reactivity profile), P24752_C413” value (ACAT1 C413 (P24752); 500 μm in-vitro ramos) was 0.9.

In the case of `O=C(CCl)N1CCC(C(O)(c2ccccc2)c2ccccc2)CC1` [compound 20], the “isoTOP-ABPP ratio (reactivity profile), P24752_C413” value (ACAT1 C413 (P24752); 500 μm in-vitro ramos) is reported as 14.0, the “isoTOP-ABPP ratio (reactivity profile), P24752_C413” value (ACAT1 C413 (P24752); 500 μm in-vitro ramos_231) is reported as 20.0 and the “isoTOP-ABPP ratio (reactivity profile), P19447_C342” value (ERCC3 C342 (P19447)) is reported as 2.6.

For `O=C(CCl)NC12CC3CC(CC(C3)C1)C2` [compound 21], the “isoTOP-ABPP ratio P04183_C230” value ([1]; 200 μM, insitu, 231) was 0.7, the “isoTOP-ABPP ratio P12268_C140” value ([2]; 200 μM, insitu, 231) was 0.6 and the “isoTOP-ABPP ratio P12268_C331” value ([2]; 200 μM, insitu, 231) was 0.8. For the same molecule, the “isoTOP-ABPP ratio Q09161_C44” value ([3]; 200 μM, insitu, 231) was 1.3, the “isoTOP-ABPP ratio (reactivity profile), P24752_C413” value (ACAT1 C413 (P24752); 500 μm in-vitro ramos) was 1.4 and the “isoTOP-ABPP ratio (reactivity profile), P24752_C413” value (ACAT1 C413 (P24752); 500 μm in-vitro ramos_231) was 1.4. For the same molecule, the “isoTOP-ABPP ratio (reactivity profile), P19447_C342” value (ERCC3 C342 (P19447)) was 6.1.

With `O=C(CCl)N1CCOCC1` [compound 22] the “isoTOP-ABPP ratio (reactivity profile), P24752_C413” value (ACAT1 C413 (P24752); 500 μm in-vitro ramos) was 1.1 and the “isoTOP-ABPP ratio (reactivity profile), P24752_C413” value (ACAT1 C413 (P24752); 500 μm in-vitro ramos_231) was 1.1.

For `N#C/C(=C\c1cc(C(F)(F)F)cc(C(F)(F)F)c1)C(N)=O` [compound 23], the “isoTOP-ABPP ratio (reactivity profile), P24752_C413” value (ACAT1 C413 (P24752); 500 μm in-vitro ramos) was 1.2, the “isoTOP-ABPP ratio (reactivity profile), P24752_C413” value (ACAT1 C413 (P24752); 500 μm in-vitro ramos_231) was 1.1 and the “isoTOP-ABPP ratio (reactivity profile), P19447_C342” value (ERCC3 C342 (P19447)) was 1.6.

In the case of `CC(Br)C(=O)Nc1cc(C(F)(F)F)cc(C(F)(F)F)c1` (stereo not shown) [compound 24], the “isoTOP-ABPP ratio (reactivity profile), P24752_C413” value (ACAT1 C413 (P24752); 500 μm in-vitro ramos) is reported as 1.2.

`CC(Cl)C(=O)Nc1cc(C(F)(F)F)cc(C(F)(F)F)c1` (stereo not shown) [compound 25] was tested, and the “isoTOP-ABPP ratio (reactivity profile), P24752_C413” value (ACAT1 C413 (P24752); 500 μm in-vitro ramos_231) was 1.0 and the “isoTOP-ABPP ratio (reactivity profile), P19447_C342” value (ERCC3 C342 (P19447)) was 0.9.
